Measured values reported in patent US10968232B2 (Merck Sharp & Dohme Corp., priority 2016, dated 2021).

Molecular target: T1, human GPR40 (Homo sapiens, UniProt O14842)
T1 construct: expressed in transfected cells
Assay: Inositol Phosphate Turnover (IP1) Assay
Type: cell-based
Conditions: HEK cells stably expressing human GPR40; CisBio IP-One kit; 60 minutes at 37 degrees; read-out: Human IP1 EC50
Method: Human GPR40 stable cell-lines were generated in HEK cells. The expression plasmids were transfected using lipofectamine (Life Technologies) following manufacturer's instructions. Stable cell-lines were generated following drug selection and single cell cloning. The assay was performed in 384-well format. HEK cells stably expressing human GPR40 were plated at 7500 cells per well in growth medium (DMEM/10% fetal calf serum). Cell plates were then incubated 16 hours at 37 degrees in a 5% CO2 incubator. Measurement of Inositol Phosphate Turnover (IP1) was performed using the CisBio IP-One kit (Part number 62IPAPEB). After the 16 hour incubation, the growth media was removed by centrifugation using the BlueWasher (AusWasher GUI Ver. v1.0.1.8) Protocol #21-“Light Dry” and 10 ul of stimulation buffer (prepared as described in the kit) was added to each well. In a separate plate, compounds were diluted in DMSO (200-fold over the final concentration in the assay well) and 50 nl was acoustically transferred to the appropriate well in the assay cell plate. The plates were then incubated for 60 minutes at 37 degrees in a 5% CO2 incubator. 10 ul of detection buffer (also prepared as described in the IP-One kit) was added to each well and the plates were incubated at room temperature for 60 minutes in the dark. The plates were then read in a Perkin Elmer EnVision or equivalent reader able to measure FRET. […] Data was normalized to % activity using a reference compound and EC50s determined using a standard 4-parameter fit.

T1 sequence (O14842 whole entry): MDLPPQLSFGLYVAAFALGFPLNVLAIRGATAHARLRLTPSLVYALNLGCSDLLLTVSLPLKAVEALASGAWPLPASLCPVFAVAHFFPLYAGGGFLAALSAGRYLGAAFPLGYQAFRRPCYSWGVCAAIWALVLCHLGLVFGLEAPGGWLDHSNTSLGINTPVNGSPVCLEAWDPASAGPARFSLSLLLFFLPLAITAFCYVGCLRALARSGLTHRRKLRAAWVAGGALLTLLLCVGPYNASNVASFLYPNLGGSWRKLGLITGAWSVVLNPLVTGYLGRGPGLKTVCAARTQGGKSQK

Row | SMILES | EC50 [nM]
1 | CC(c1cc(Cl)ccc1OC(F)F)N1CCC2(CCc3ccc([C@H](C4CC4)[C@H](C)C(=O)O)c(F)c3O2)CC1 (single isomer, unassigned) [Example 33, (2S,3R)-3-(1′-((R or S)-1-(5-chloro-2-(difluoromethoxy)phenyl)ethyl)-8-fluorospiro-[chroman-2,4′-piperidin]-7-yl)-3-cyclopropyl-2-methylpropanoic Acid] | 50
2 | C[C@H](C(=O)O)[C@H](c1ccc2c(c1)OC1(CC2)[C@@H]2CC[C@H]1CN([C@@H](C)c1cc(C(F)(F)F)ccc1C(F)(F)F)C2)C1CC1 (stereo partly drawn) [Example 86, (2S,3R)-3-((1R,5S)-3-((S)-1-(2,5-bis(trifluoro-methyl)phenyl)ethyl)-3-azaspiro[bicyclo[3.2.1]oc-tane-8,2′-chroman]-7′-yl)-3-cyclopropyl-2-methylpropanic acid] | 46.5
3 | C[C@H](C(=O)O)[C@H](c1ccc2c(c1)OC1(CC2)CC(N(C)[C@H](C)c2cc(C(F)(F)F)ccc2C(F)(F)F)C1)C1CC1 (stereo partly drawn) [Example 101] | 17
4 | COc1cc(C(C)N2CCC3(CCc4ccc([C@H](C5CC5)[C@H](C)C(=O)O)cc4O3)CC2)c(C(F)(F)F)cn1 (single isomer, unassigned) [Example 107, sodium (2S,3R)-3-cyclo-propyl-3-(1′-((S or R)-1-(2-methoxy-5-(trifluoro-methyl)pyridin-4-yl)ethyl)spiro[chroman-2,4′-piperidin]-7-yl)-2-methylpropanoate] | 2.12
5 | CC(c1cc(C(F)(F)F)ccc1C1CC1)N1CCC2(CCc3ccc([C@H](C4CC4)[C@H](C)C(=O)O)cc3O2)CC1 (single isomer, unassigned) [Example 13, sodium (2S,3R)-3-cyclo-propyl-3-(1′-((R or S)-1-(2-cyclopropyl-5-(trifluoromethyl)phenyl)ethyl)spiro[chroman-2,4′-piperidin]-7-yl)-2-methylpropanoale] | 3.6
6 | C[C@H](C(=O)O)[C@H](c1ccc2c(c1)OC1(CC2)CCN(c2ccc3nc(C(F)(F)F)cn3n2)CC1)C1CC1 [Example 71, (2S,3R)-3-cyclopropyl-2-methyl-3-(1′-(2-(trifluoromethyl)imidazo[1,2-b]-pyridazin-6-yl)spiro[chroman-2,4′-piperidin]-7-yl)propanoic Acid] | 545
7 | C[C@H](C(=O)O)[C@H](c1ccc2c(c1)OC1(CC2)CCN(S(=O)(=O)c2cc(C(F)(F)F)ccc2Cl)CC1)C1CC1 [Example 25, (2S,3R)-3-(1′-((2-chloro-5-(trifluoromethyl)phenyl)sulfonyl)spiro[chroman-2,4′-piperidin]-7-yl)-3-cyclopropyl-2-methylpropanoic Acid] | 18.3
8 | CC(c1cc(Cl)ccc1OCC(F)(F)F)N1CCC2(CCc3ccc([C@H](C4CC4)[C@H](C)C(=O)O)cc3O2)CC1 (single isomer, unassigned) [Example 62, (2S,3R)-3-(1′-((R or S)-1-(5-chloro-2-(2,2,2-trifluoroethoxy)phenyl)ethyl)spiro [chroman-2,4′-piperidin]-7-yl)-3-cyclopropyl-2-methylpropanoic Acid] | 386
9 | Cc1cscc1-c1ccc(OC(F)(F)F)c(C(C)N2CCC3(CCc4ccc([C@H](C5CC5)[C@H](C)C(=O)O)cc4O3)CC2)c1 (stereo partly drawn) [Example 119] | 15
10 | Cc1noc(C)c1-c1ccc(OC(F)(F)F)c(C(C)N2CCC3(CCc4ccc([C@H](C5CC5)[C@H](C)C(=O)O)cc4O3)CC2)c1 (stereo partly drawn) [Example 121, (2S,3R)-3-cyclopropyl-3-(1′-(1-(5-(3,5-dimethylisoxazol-4-yl)-2-(trifluoro-methoxy)phenyl)ethyl)spiro [chroman-2,4′-piperidin]-7-yl)-2-methyl-propanoic acid] | 110
11 | Cc1ccc(OC(F)(F)F)c(CN2CCC3(CCc4ccc([C@H](C5CC5)[C@H](C)C(=O)O)cc4O3)CC2)c1 [Example 77, (2S,3R)-3-cyclopropyl-2-methyl-3-(1′-(5-methyl-2-(trifluoromethoxy)benzyl)spiro[chroman-2,4′-piperidin]-7-yl)propanoic acid] | 23.4
12 | CC(c1cc(Cl)cc(Cl)c1OC(F)F)N1CCC2(CCc3ccc([C@H](C4CC4)[C@H](C)C(=O)O)cc3O2)CC1 (single isomer, unassigned) [Example 79, (2S,3R)-3-cyclopropyl-3-(1′-((R or S)-1-(3,5-dichloro-2-(difluoromethoxy)phenyl)-ethyl)spiro[chroman-2,4′-piperidin]-7-yl)-2-methylpropanoic Acid] | 2.44
13 | C[C@H](C(=O)O)[C@H](c1ccc2c(c1)OC1(CC2)CC(N[C@H](C)c2cc(C(F)(F)F)ccc2C(F)(F)F)C1)C1CC1 (stereo partly drawn) [Example 93, (2S,3R)-3-(3′-(((R)-1-(2,5-bis(trifluoro-methyl)phenyl)ethyl)a-mino)spiro[chroman-2,1′-cyclo-butan]-7-yl)-3-cyclopropyl-2-methylpropanic acid] | 5.71
14 | CC(c1ncccc1C(F)(F)F)N1CCC2(CCc3ccc([C@H](C4CC4)[C@H](C)C(=O)O)cc3O2)CC1 (single isomer, unassigned) [Example 44, (2S,3R)-3-cyclo-propyl-2-methyl-3-(1′-((R or S)-1-(3-(trifluoromethyl)pyridin-2-yl)ethyl)spiro-[chroman-2,4′-piperidin]-7-yl)propanoic acid] | 311
15 | C[C@H](C(=O)O)[C@H](c1ccc2c(c1)OC1(CC2)CCN([C@H](C)c2cc(C(F)(F)F)ccc2C(F)(F)F)CC1)C1CC1 [Example 130, Sodium (2S,3R)-3-(1′-((R)-1-(2,5-Bis(trifluoromethyl)phenyl)ethyl)spiro[chromane-2,4′-piperidin]-7-yl)-3-cyclopropyl-2-methylpropanoate] | 3.1
16 | CCc1[nH]c(C(=O)O)cc1-c1ccc(OC(F)(F)F)c(C(C)N2CCC3(CCc4ccc([C@H](C5CC5)[C@H](C)C(=O)O)cc4O3)CC2)c1 (single isomer, unassigned) [Example 120, 4-(3-((S or R)-1-(7-((1R,2S)-2-carboxy-1-cyclopropylpropyl)spiro[chro-man-2,4′-piperidin]-1′-yl)ethyl)-4-(trifluoro-methoxy)phenyl)-5-ethyl-1H-pyrrole-2-carboxylic acid] | 501
17 | CC(c1cc(Cl)ccc1OC(F)(F)F)N1CCC2(CCc3ccc([C@H](C4CC4)[C@H](C)C(=O)O)cc3O2)CC1 (stereo partly drawn) [Example 133, Sodium (2S,3R)-3-(1′-(1-(5-chloro-2-(trifluoromethoxy)phenyl)ethyl)spiro[chromane-2,4′-piperidin]-7-yl)-3-cyclopropyl-2-methylpropanoate] | 3.3
18 | C[C@H](C(=O)O)[C@H](c1ccc2c(c1)OC1(CCCN([C@H](C)c3cc(C(F)(F)F)ccc3C(F)(F)F)CC1)CC2)C1CC1 (single isomer, unassigned) [Example 49, (2S,3R)-3-((R or S)-1-((R)-1-(2,5-bis (trifluoromethyl)phenyl)ethyl)spiro[azepane-4,2′-chroman]-7′-yl)-3-cyclopropyl-2-methylpropanoic acid] | 0.527
19 | CC(c1cc(Cl)ccc1C(F)(F)F)N1CCC2(CCc3ccc([C@H](C4CC4)[C@H](C)C(=O)O)cc3O2)CC1 (mixture of isomers) [Example 5, (2S3R)-3-(1′-((RS)-1-(5-chloro-2-(trifluoromethyl)phenyl)ethyl)spiro[chroman-2,4′-piperidin]-7-yl)-3-cyclopropyl-2-methylpropanoic Acid] | 2.71
20 | C[C@H](C(=O)O)[C@H](c1ccc2c(c1)OC1(CC2)CCN(Cc2cc(C(F)(F)F)cc(Cl)c2F)CC1)C1CC1 [Example 24, (2S,3R)-3-(1′-(3-chloro-2-fluoro-5-(trifluoromethyl)benzyl)spiro[chroman-2,4′-piperidin]-7-yl)-3-cyclopropyl-2-methylpropanoic Acid] | 11.2
21 | C[C@H](C(=O)O)[C@H](c1ccc2c(c1)OC1(CC2)CCN(Cc2cn(C)nc2C(F)(F)F)CC1)C1CC1 [Example 72, (2S,3R)-3-cyclopropyl-2-methyl-3-(1′-((1-methyl-3-(trifluoromethyl)-1H-pyrazol-4-yl)methyl)spiro[chroman-2,4′-piperidin]-7-yl)propanoic Acid] | 995
22 | CCC(c1cc(C(F)(F)F)cc(Cl)c1F)N1CCC2(CCc3ccc([C@H](C4CC4)[C@H](C)C(=O)O)cc3O2)CC1 (stereo partly drawn) [Example 109, (2S,3R)-3-(1′-(1-(3-chloro-2-fluoro-5-(tri-fluromethyl)phenyl)propyl)spiro[chroman-2,4′-piperidin]-7-yl)-3-cyclopropyl-2-methylpropanoic acid] | 2.51
23 | CC[C@@H](c1cc(C(F)(F)F)ccc1C(F)(F)F)N1CCC2(CCc3ccc([C@H](C4CC4)[C@H](C)C(=O)O)cc3O2)CC1 [Example 7, sodium (2S,3R)-3-(1′-((S)-1-(2,5-bis(trifluoro-methyl)phenyl)propyl)-spiro[chroman-2,4′-piperidin]-7-yl)-3-cyclo-propyl-2-methyl-propanoic acid] | 2.14
24 | CC(c1cc(F)cc(F)c1Cl)N1CCC2(CCc3ccc([C@H](C4CC4)[C@H](C)C(=O)O)cc3O2)CC1 (single isomer, unassigned) [Example 19] | 37.6
